Target: T1, purified recombinant 6HIS-Tev-LRRK2 (1326-2527) (Homo sapiens, UniProt Q5S007)
T1 construct: A LRRK2 cDNA encoding residues 1326-2527 was received from Dundee University; made in house; host or cells: Spodoptera frugiperda (Sf9) insect cells, baculovirus (pFB-HTb)
T1 sequence (Q5S007 1326-2527): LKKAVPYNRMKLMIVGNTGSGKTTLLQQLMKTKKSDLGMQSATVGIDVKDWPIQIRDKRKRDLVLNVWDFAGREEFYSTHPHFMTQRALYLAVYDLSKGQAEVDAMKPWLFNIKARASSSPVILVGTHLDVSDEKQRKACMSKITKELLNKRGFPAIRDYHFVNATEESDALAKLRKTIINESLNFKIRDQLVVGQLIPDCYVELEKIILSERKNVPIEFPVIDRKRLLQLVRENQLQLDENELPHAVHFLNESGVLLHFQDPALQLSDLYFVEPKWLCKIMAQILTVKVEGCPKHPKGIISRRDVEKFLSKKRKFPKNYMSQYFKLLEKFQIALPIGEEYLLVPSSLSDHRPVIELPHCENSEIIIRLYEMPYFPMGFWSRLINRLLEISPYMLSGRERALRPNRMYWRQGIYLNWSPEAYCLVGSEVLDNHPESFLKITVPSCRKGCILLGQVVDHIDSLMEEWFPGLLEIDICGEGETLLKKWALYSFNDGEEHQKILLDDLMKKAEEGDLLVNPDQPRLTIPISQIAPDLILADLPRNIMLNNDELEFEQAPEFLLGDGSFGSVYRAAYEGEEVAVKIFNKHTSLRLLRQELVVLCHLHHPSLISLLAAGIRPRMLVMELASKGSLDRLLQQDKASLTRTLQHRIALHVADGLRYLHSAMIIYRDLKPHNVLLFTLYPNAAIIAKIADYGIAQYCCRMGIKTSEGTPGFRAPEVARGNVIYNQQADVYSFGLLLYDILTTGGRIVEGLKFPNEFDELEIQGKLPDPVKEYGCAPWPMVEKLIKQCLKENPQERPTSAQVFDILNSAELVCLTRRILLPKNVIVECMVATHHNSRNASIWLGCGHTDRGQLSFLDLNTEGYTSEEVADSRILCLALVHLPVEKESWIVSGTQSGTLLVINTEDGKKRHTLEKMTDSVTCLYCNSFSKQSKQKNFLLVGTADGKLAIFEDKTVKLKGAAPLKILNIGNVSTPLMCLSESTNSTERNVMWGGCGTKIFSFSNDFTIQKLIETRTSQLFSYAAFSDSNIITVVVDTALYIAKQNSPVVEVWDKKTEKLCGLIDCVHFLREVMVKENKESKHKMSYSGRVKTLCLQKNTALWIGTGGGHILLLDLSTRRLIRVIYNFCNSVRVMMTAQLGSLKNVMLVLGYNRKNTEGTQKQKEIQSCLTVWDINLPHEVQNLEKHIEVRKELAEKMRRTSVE
Test: Recombinant LRRK2 enzyme peptide substrate TR-FRET assay
Assay type: biochemical
Settings: 60 nM LRRK2 (1326-2527), 1 uM Biotin-longer LRRKtide, 10 uM ATP; read-out: recombinant LRRK2 enzyme peptide substrate TR-FRET assay (pIC50) (converted)
Method: This gene fragment was subcloned into pFB-HTb (Invitrogen) using BamHI and NotI restriction sites. The LRRK2 plasmid was recombined into the baculovirus genome according to the BAC-to-BAC protocol described by Invitrogen. Transfection into Spodoptera frugiperda (Sf9) insect cells was performed using Cellfectin (Invitrogen), according to the manufacturer's protocol to generate P1 and P2 baculovirus stocks.
Sf9 cells were grown in HyClone SFX (Thermo Scientific) growth media at 27° C., 80 rpm in shake flask until of a sufficient volume to inoculate a bioreactor. […] The cells were infected with P2 Baculovirus at a multiplicity of infection (MOI) of 3. The cultivation was continued for a 48 hour expression phase. The infected cells were removed from the growth media by centrifugation at 2500 g using a Sorvall RC 3C Plus centrifuge at 2500 g for 20 minutes. The cell pellet was immediately frozen and subsequently supplied for purification.
A 260 g pellet was allowed to thaw in a water bath at 27° C. with 800 ml lysis buffer/buffer A (50 mm Tris-HCl pH 8.5, 300 mM NaCl, 1 mm DTT, 10% glycerol, 1 ml/L calbiochem complete protease inhibitor cocktail and benzonase (50 ul/800 ml)) before being dounce homogenised on ice using 20 strokes per 100 ml. The suspension was packed in ice and sonicated at 50% amplitude for 3 min 10 sec on/off using a ¾″ probe. The suspension was then centrifuged at 100,000 g for 90 min, at 4° C.
The lysate (700 ml) was decanted from the insoluble pellet and contacted for 3 h at 4 C with 10 ml His bind Ni NTA resin by end over end mixing. The resin was recovered by centrifugation, 3000 g, 5 min at 4 C, and packed in an XK16 column. The column was then washed with 10 column volumes buffer A, 10 column volumes buffer B (buffer A+1M NaCl) and 10 column volumes buffer C (buffer A+20 mM imidazole). The column was then eluted with 15 column volumes buffer D (buffer A+300 mM imidazole) collecting 2 ml fractions. All washes and elution were conducted at 4 ml/min.
Fractions identified by SDS-PAGE as containing protein of interest were pooled and loaded directly onto a 320 ml SEC Superdex 200 pg column that was pre-equilibrated with buffer E (50 mM Tris-HCl pH 8.5, 300 mM NaCl, 10% glycerol, 1 mM DTT). The column was loaded and eluted with 1.2 column volumes buffer E at 2 ml/min collecting 2 ml fractions. Fractions identified by SDS-PAGE as containing protein of interest were tested for activity.
Production of Biotin-Longer LRRKtide
The resulting crude peptide was cleaved from the resin using a 95:2.5:2.5 mix of trifluoroacetic acid:triisopropylsilane:water.
Recombinant LRRK2 Enzyme Peptide Substrate TR-FRET Assay
Assay Protocol • 1. A 10 mM test compound was dissolved in 100% DMSO and serially diluted 1 in 4. 100 nL was then added to a 384 well low volume black plate, excluding columns 6 and 18. 100 nL of DMSO was added to columns 6 and 18 as controls wells. […] Test plates were then incubated for 30 minutes at room temperature. • 3. 3 uL ‘substate solution’ containing 2 uM Biotin-longer LRRKtide peptide substrate and 20 uM ATP was added to all wells of the plate using a multidrop combi dispenser giving a final assay concentration of 1 uM Biotin-longer LRRKtide and 10 uM ATP. Test plates were then incubated for 2 hours at room temperature. (Incubation may vary depending on rate and linearity of reaction with different enzyme batches). • 4. […] Data is analysed using ActivityBase software (IDBS). Dilutions and concentrations of reagents determined on a batch to batch basis

SMILES | IC50 [nM]
CCOc1nc(Nc2ccc(C(=O)N3CCN(C)CC3)cc2OCC2CC2)nc2[nH]ccc12 [Example E8, (3-(cyclopropylmethoxy)-4-((4-ethoxy-7H-pyrrolo-[2,3-d]-pyrimidin-2-yl)amino)phenyl)(4-methylpiperazin-1-yl)-methanone] | ≤ 10
CCOc1nc(Nc2ccc(C(=O)N3CCN(C)CC3)cc2OC(F)F)nc2[nH]ccc12 [Example E7, (3-(difluoromethoxy)-4-((4-ethoxy-7H-pyrrolo-[2,3-d]-pyrimidin-2-yl)amino)phenyl)(4-methylpiperazin-1-yl)-methanone] | ≤ 10
CCOc1nc(Nc2ccc(C(=O)N3CCC(F)CC3)cc2OC)nc2[nH]ccc12 [Example E36, (4-((4-ethoxy-7H-pyrrolo-[2,3-d]pyrimidin-2-yl)amino)-3-methoxyphenyl)(4-fluoropiperidin-1-yl)methanone] | ≤ 10
CCOc1nc(Nc2ccc(C(=O)N3[C@H](C#N)C[C@@H]4C[C@@H]43)cc2OC)nc2[nH]ccc12 [Example E66, (1 S,3S,5S)-2-(4-((4-ethoxy-7H-pyrrolo-[2,3-d]pyrimidin-2-yl)amino)-3-methoxybenzoyl)-2-azabicyclo-[3.1.0]-hexane-3-carbonitrile] | ≤ 10
CCOc1cc(C(=O)N2CCN(C)CC2)ccc1Nc1nc(OCC)c2cc[nH]c2n1 [Example E25, (3-ethoxy-4-((4-ethoxy-7H-pyrrolo-[2,3-d]pyrimidin-2-yl)amino)phenyl)(4-methylpiperazin-1-yl)methanone] | ≤ 10
CCOc1nc(Nc2ccc(C(=O)N3CCCC4(COC4)C3)cc2OC)nc2[nH]ccc12 [Example E44, (4-((4-ethoxy-7H-pyrrolo-[2,3-d]pyrimidin-2-yl)amino)-3-methoxyphenyl)(2-oxa-6-azaspiro-[3.5]nonan-6-yl)methanone] | ≤ 10
CCOc1nc(Nc2cc(F)c(C(=O)N3CCN(C)CC3)cc2OC)nc2[nH]ccc12 [Example E5, (4-((4-ethoxy-7H-pyrrol-[2,3-d]pyrimidin-2-yl)amino)-2-fluoro-5-methoxyphenyl)(4-methylpiperazin-1-yl)-methanone] | ≤ 10

The next lines start with the values.

IC50 [nM] | SMILES
≤ 10 | CCOc1nc(Nc2ccc(C(=O)N3CCC(COC)CC3)cc2OC)nc2[nH]ccc12 [Example E42, (4-((4-ethoxy-7H-pyrrolo-[2,3-d]-pyrimidin-2-yl)amino)-3-methoxyphenyl)(4-(methoxymethyl)piperidin-1-yl)methanone]
≤ 10 | CCOc1nc(Nc2ccc(C(=O)N3CCN(C)[C@H](C)C3)cc2OC)nc2[nH]ccc12 [Example E29, (R)-(3,4-dimethylpiperazin-1-yl)-(4-((4-ethoxy-7H-pyrrolo-[2,3-d]-pyrimidin-2-yl)amino)-3-methoxyphenyl)methanone]
≤ 10 | CCOc1nc(Nc2ccc(C(=O)N3CCC[C@@H]3COC)cc2OC)nc2[nH]ccc12 [Example E35, (R)-(4-((4-ethoxy-7H-pyrrolo-[2,3-d]pyrimidin-2-yl)amino)-3-methoxyphenyl)(2-(methoxymethyl)pyrrolidin-1-yl)methanone]
≤ 10 | CCOc1nc(Nc2ccc(C(=O)N3CC4CC4(CO)C3)cc2OC)nc2[nH]ccc12 (single isomer, unassigned) [Example E46, (4-((4-ethoxy-7H-pyrrolo-[2,3-d]-pyrimidin-2-yl)amino)-3-methoxyphenyl)(1-(hydroxymethyl)-3-azabicyclo-[3.1.0]-hexan-3-yl)methanone]
≤ 10 | CCOc1nc(Nc2ccc(C(=O)N3CC4CC4(COC)C3)cc2OC)nc2[nH]ccc12 (single isomer, unassigned) [Example E64, (4-((4-ethoxy-7H-pyrrolo-[2,3-d]pyrimidin-2-yl)amino)-3-methoxyphenyl)-(1-(methoxymethyl)-3-azabicyclo[3.1.0]hexan-3-yl)methanone]
≤ 10 | CCOc1nc(Nc2ccc(C(=O)N3CCN(C)[C@@H](C)C3)cc2OC)nc2[nH]ccc12 [Example E41, (S)-(3,4-dimethylpiperazin-1-yl)(4-((4-ethoxy-7H-pyrrolo-[2,3-d]-pyrimidin-2-yl)amino)-3-methoxyphenyl)methanone]
≤ 10 | CCOc1nc(Nc2ccc(C(=O)N3CCC4(CC3)CC4COC)cc2OC)nc2[nH]ccc12 (single isomer, unassigned) [Example E52, (4-((4-ethoxy-7H-pyrrolo-[2,3-d]-pyrimidin-2-yl)amino)-3-methoxyphenyl)(1-(methoxymethyl)-6-azaspiro-[2.5]-octan-6-yl)methanone]
